These results are taken from US20240182503A1, “MACROCYCLE COMPLEMENT FACTOR B INHIBITORS” (priority 2021, published 2024).

A value given as a limit tells only on which side of the number the result lay.

The IC50 is the point on the concentration scale where inhibition reaches its midpoint.

The target in the first experiment is CVF-Bb complex (Homo sapiens (Human), UniProt P00751). Nature of the experiment: biochemical. Type of experiment: biochemical.
Conditions: not given
As for the experimental part: CVF-Bb complex, prepared from purified cobra venom factor, (3 nM) is incubated with a compound of the disclosure at various concentrations for 10 minutes at room temperature in PBS (pH 7.4) containing 10 mM MgCl2 and 0.05% (w/v) CHAPS. Human Complement C3 substrate is added to a final concentration of 1 μM. After 1 hour incubation at room temperature, the enzyme reaction is stopped by addition of a cocktail of concentrated pan-protease inhibitors. The product of the reaction, C3a, is quantified by means of an enzyme-linked-immunosorbent assay and/or denaturing gel electrophoresis (SDS-PAGE). IC50 values are calculated from percentage of inhibition of CVF-Bb activity as a function of test compound concentration.
The compound `Cc1cc2c(c3cc[nH]c13)CN1CC[C@@H](C[C@H]1c1ccc(C(=O)O)cc1)OCCCCCCCCCO2` (racemic) [Ex. 34, rac-4-((3^2R,3^4R)-1^7-methyl-11H-4,14-dioxa-1(4,5)-indola-3(1,4)-piperidinacyclotetradecaphane-3^2-yl)benzoic acid] registered a 50% inhibitory concentration (IC50) of over 10000 nM.

In the case of `COc1cc(C)c2[nH]ccc2c1CN1CC[C@H](OCCNC(C)=O)C[C@H]1c1ccc(C(=O)O)cc1` [Compar. Ex. 1, 4-((2S,4S)-4-(2-acetamidoethoxy)-1-((5-methoxy-7-methyl-1H-indol-4-yl)methyl)piperidin-2-yl)benzoic acid, reference compound], it took 135 nM to reach half-maximal inhibition (IC50). Compound `CCO[C@H]1CCN(Cc2c(OC)cc(C)c3[nH]ccc23)[C@H](c2ccc(C(=O)NS(=O)(=O)CCNC(C)=O)cc2)C1` [Compar. Ex. 2, N-((2-acetamidoethyl)sulfonyl)-4-((2S,4S)-4-ethoxy-1-((5-methoxy-7-methyl-1H-indol-4-yl)methyl)piperidin-2-yl)benzamide, reference compound] registered an IC50 of 395 nM. On the same count and under the same terms, under `CCO[C@H]1CCN(Cc2c(OC)cc(C)c3[nH]ccc23)[C@H](c2ccc(C(=O)O)cc2OC)C1` [Ex. 3, 4-((2S,4S)-4-ethoxy-1-((5-methoxy-7-methyl-1H-indol-4-yl)methyl)piperidin-2-yl)-3-methoxybenzoic acid] stands 263 nM; under `CCO[C@@H]1CCN(Cc2c(OC)cc(C)c3[nH]ccc23)[C@H](c2ccc(C(=O)O)cc2OC)C1` [Ex. 4, 4-((2S,4R)-4-ethoxy-1-((5-methoxy-7-methyl-1H-indol-4-yl)methyl)piperidin-2-yl)-3-methoxybenzoic acid], 3550 nM. On the same count and under the same terms, the value for `CCO[C@H]1CCN(Cc2c(OC)cc(C)c3[nH]ccc23)[C@H](c2ccc(C(=O)O)cc2OCCNC(C)=O)C1` [Ex. 6, 3-(2-acetamidoethoxy)-4-((2S,4S)-4-ethoxy-1-((5-methoxy-7-methyl-1H-indol-4-yl)methyl)piperidin-2-yl)benzoic acid] was 313 nM. Still for that read-out and setting: the value for `Cc1cc2c(c3cc[nH]c13)CN1CC[C@@H](C[C@H]1c1ccc(C(=O)O)cc1)OCCCCCCCO2` [Ex. 25, 4-((3^2R,3^4R)-1^7-methyl-1^1H-4,12-dioxa-1(4,5)-indola-3(1,4)-piperidinacyclododecaphane-3^2-yl)benzoic acid] was over 10000 nM; that for `CCO[C@H]1CCN2Cc3c(cc(C)c4[nH]ccc34)OCCCCCCCCOc3cc(C(=O)O)ccc3[C@@H]2C1` [Ex. 30, (19bS,21S)-21-ethoxy-4-methyl-7,8,9,10,11,12,13,14,19b,20,21,22,23,25-tetradecahydro-3H-benzo[7,8]pyrido[1′,2′:5,6][1,9,5]dioxaazacyclo-heptadecino[3,2-e]indole-1^7-carboxylic acid] was 4910 nM.

The compound `CCO[C@H]1CCN2Cc3c(cc(C)c4[nH]ccc34)OCCCCCCCCCOc3cc(C(=O)O)ccc3[C@@H]2C1` [Ex. 31, (20bS,22S)-22-ethoxy-4-methyl-3,7,8,9,10,11,12,13,14,15,20b,21,22,23,24,26-hexadecahydrobenzo[7,8]pyrido[1′,2′:5,6][1,9, 5]dioxaazacyclooctadecino[3,2-e]indole-18-carboxylic acid] came in with an IC50 of 2870 nM. Still for that read-out and setting: under `CCO[C@H]1CCN2Cc3c(cc(C)c4[nH]ccc34)OCCCCCCCCCCOc3cc(C(=O)O)ccc3[C@@H]2C1` [Ex. 32, (21bS,23S)-23-ethoxy-4-methyl-7,8,9,10,11,12,13,14,15,16,21b,22,23,24,25,2 7-hexadecahydro-3H-benzo[7,8]pyrido[1′,2′:5,6][1,9,5]dioxaazacyclo-nonadecino[3,2-e]indole-19-carboxylic acid] stands over 10000 nM; under `COc1cc(C)c2[nH]ccc2c1CN1CC[C@H]2C[C@H]1c1ccc(C(=O)NS(C)(=O)=O)cc1OCCCCCCO2` [Ex. 33, (1^2S,1^4S)-1^1-((5-methoxy-7-methyl-1H-indol-4-yl)methyl)-N-(methylsulfonyl)-3,10-dioxa-1(2,4)-piperidina-2(1,2)-benzenacyclodecaphane-2^4-carboxamide], 96 nM.

In turn, `Cc1cc2c(c3cc[nH]c13)CN1CC[C@@H](C[C@H]1c1ccc(C(=O)O)cc1)OCCCCCCCCO2` [Ex. 35, 4-((3^2R,3^4R)-1^7-methyl-11H-4,13-dioxa-1(4,5)-indola-3(1,4)-piperidinacyclotridecaphane-3^2-yl)benzoic acid] gave a concentration for half-maximal inhibition (IC50) of over 10000 nM. The same measure, in the same setting: under `COc1cc(C)c2[nH]ccc2c1CN1CC[C@H]2C[C@H]1c1ccc(C(=O)O)cc1/C=C/CCCCCO2` [Ex. 36, (1^2R,1^4R,E)-1^1-((5-methoxy-7-methyl-1H-indol-4-yl)methyl)-10-oxa-1(2,4)-piperidina-2(1,2)-benzenacyclodecaphan-3-ene-2^4-carboxylic acid] stands 241 nM. Still for that read-out and setting: under `COc1cc(C)c2[nH]ccc2c1CN1CC[C@H]2C[C@H]1c1ccc(C(=O)O)cc1/C=C\CCCCCO2` [Ex. 37, (1^2R,1^4R,Z)-1^1-((5-methoxy-7-methyl-1H-indol-4-yl)methyl)-10-oxa-1(2,4)-piperidina-2(1,2)-benzenacyclodecaphan-3-ene-2^4-carboxylic acid] stands 263 nM; under `COc1cc(C)c2[nH]ccc2c1CN1CC[C@H]2C[C@H]1c1ccc(C(=O)O)cc1/C=C/CCCCCCO2` [Ex. 38, (1^2R,1^4R,E)-11-((5-methoxy-7-methyl-1H-indol-4-yl)methyl)-1^1-oxa-1(2,4)-piperidina-2(1,2)-benzenacycloundecaphan-3-ene-2^4-carboxylic acid], 160 nM. `COc1cc(C)c2[nH]ccc2c1CN1CC[C@H]2CC1c1ccc(C(=O)O)cc1CCCCCCCO2` [Ex. 39, (1^2S,1^4RS)-1^1-((5-methoxy-7-methyl-1H-indol-4-yl)methyl)-10-oxa-1(2,4)-piperidina-2(1,2)-benzenacyclodecaphane-2^4-carboxylic acid] returned a half-maximal inhibitory concentration (IC50) of 251 nM.

In turn, `COc1cc(C)c2[nH]ccc2c1CN1CC[C@H]2C[C@H]1c1ccc(C(=O)NS(C)(=O)=O)cc1OCCCCCO2` [Ex. 40, (1^2R,1^4R)-1^1-((5-methoxy-7-methyl-1H-indol-4-yl)methyl)-N-(methylsulfonyl)-3,9-dioxa-1(2,4)-piperidina-2(1,2)-benzenacyclononaphane-2^4-carboxamide] came in with an IC50 of 309 nM. The compound `COc1cc(C)c2[nH]ccc2c1CN1CC[C@H]2C[C@H]1c1ccc(C(=O)O)cc1CCCCCCCCO2` [Ex. 41, (1^2R,1^4R)-1^1-((5-methoxy-7-methyl-1H-indol-4-yl)methyl)-11-oxa-1(2,4)-piperidina-2(1,2)-benzenacycloundecaphane-2^4-carboxylic acid] displayed an IC50 of 129 nM.

Staying with this experiment, now noted: read-out: IC50.
Take `COc1cc(C)c2[nH]ccc2c1CN1CCC2CC1c1ccc(C(=O)O)cc1OCCCCCCO2` (centres unmarked) [Ex. 5, (1^2S,1^4S)-11-((5-methoxy-7-methyl-1H-indol-4-yl)methyl)-3,10-dioxa-1(2,4)-piperidina-2(1,2)-benzenacyclodecaphane-2^4-carboxylic acid]: the IC50 was 262 nM. On the same count and under the same terms, the value for `COc1cc(C)c2[nH]ccc2c1CN1CC[C@H]2C[C@H]1c1ccc(C(=O)O)cc1OCCCCCCCO2` [Ex. 7, (1^2S,1^4S)_1^1-((5-methoxy-7-methyl-1H-indol-4-yl)methyl)-3,11-dioxa-1(2,4)-piperidina-2(1,2)-benzenacycloundecaphane-2^4-carboxylic acid] was 384 nM; that for `COc1cc(C)c2[nH]ccc2c1CN1CC[C@H]2C[C@H]1c1ccc(C(=O)O)cc1OCCCCCO2` [Ex. 8, (1^2S,1^4S)_1^1-((5-methoxy-7-methyl-1H-indol-4-yl)methyl)-3,9-dioxa-1(2,4)-piperidina-2(1,2)-benzenacyclononaphane-2^4-carboxylic acid] was 397 nM; that for `COc1cc(C)c2[nH]ccc2c1CN1CC[C@H]2C[C@H]1c1ccc(C(=O)O)cc1OCC/C=C\CO2` [Ex. 9, (1^2S,1^4S,Z)-1^1-((5-methoxy-7-methyl-1H-indol-4-yl)methyl)-3,9-dioxa-1(2,4)-piperidina-2(1,2)-benzenacyclononaphan-6-ene-2^4-carboxylic acid] was 342 nM. On the same count and under the same terms, under `COc1cc(C)c2[nH]ccc2c1CN1CC[C@H]2C[C@H]1c1ccc(C(=O)O)cc1OCCCC/C=C\CO2` [Ex. 10, (1^2S,1^4S,Z)-1^1-((5-methoxy-7-methyl-1H-indol-4-yl)methyl)-3,11-dioxa-1(2,4)-piperidina-2(1,2)-benzenacycloundecaphan-8-ene-2^4-carboxylic acid] stands 384 nM. The same measure, in the same setting: under `COc1cc(C)c2[nH]ccc2c1CN1CC[C@H]2C[C@H]1c1ccc(C(=O)O)cc1OCCC/C=C\CO2` [Ex. 11, (1^2S,1^4S,Z)-1′-((5-methoxy-7-methyl-1H-indol-4-yl)methyl)-3,10-dioxa-1(2,4)-piperidina-2(1,2)-benzenacyclodecaphan-7-ene-2^4-carboxylic acid] stands 1200 nM.

Take `COc1cc(C)c2[nH]ccc2c1CN1CC[C@H]2C[C@H]1c1ccc(C(=O)O)cc1OCCn1cc(nn1)CO2` [Ex. 12, (2^2S,2^4S,Z)-2^1-((5-methoxy-7-methyl-1H-indol-4-yl)methyl)-5′H-3,8-dioxa-2(2,4)-piperidina-5(4,1)-triazola-1(1,2)-benzenacyclooctaphane-1^4-carboxylic acid]: the concentration for half-maximal inhibition (IC50) amounted to 280 nM.

Regarding `COc1cc(C)c2[nH]ccc2c1CN1CC[C@H]2C[C@H]1c1ccc(C(=O)O)cc1OCCCn1cc(nn1)CO2` [Ex. 13, (2^2S,2^4S,Z)-2^1-((5-methoxy-7-methyl-1H-indol-4-yl)methyl)-5′H-3,9-dioxa-2(2,4)-piperidina-5(4,1)-triazola-1(1,2)-benzenacyclononaphane-1^4-carboxylic acid], the IC50 worked out at 1110 nM.
